Results published in patent US20110086759A1, “CHEMICAL COMPOUNDS” (SYNGENTA CROP PROTECTION, INC., priority 2007, published 2011).

Assays:
Assay type in all cases: in vivo
Solanum nigrum (SOLNI) [1] = experiment: Post-emergence biological efficacy, glasshouse pot test; settings: 312 h, Rate 1,000 g/ha, post-emergence spray, evaluated after 13 days (100=total damage to plant; 0=no damage to plant), read-out: Percentage damage caused to weed species, post-emergence, SOLNI
In short: (§1)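 Plants were sown in standard soil and grown 8 days in a glasshouse (24/16° C. day/night, 14 hours light, 65% humidity), then sprayed post-emergence at 1000 or 250 g/ha from acetone/water (50:50) with 0.5% Tween 20. Damage was scored visually after 13 days (0 = none, 100 = total).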

[2] = test system: Amaranthus retoflexus (AMARE); experiment: as above; settings: Amaranthus retroflexus, 312 h; Rate 1,000 g/ha; post-emergence spray; evaluated after 13 days (100=total damage to plant; 0=no damage to plant); read-out: Percentage damage caused to weed species, post-emergence, AMARE
In short: as §1

[3] = test system: Echinochloa crus-galli (ECHCG); experiment: as above; settings: 312 h, Rate 1,000 g/ha, post-emergence spray, evaluated after 13 days (100=total damage to plant; 0=no damage to plant), read-out: Percentage damage caused to weed species, post-emergence, ECHCG
In short: as §1

Setaria faberi (SETFA) [4] = experiment: as above; settings: 312 h, Rate 1,000 g/ha, post-emergence spray, evaluated after 13 days (100=total damage to plant; 0=no damage to plant), read-out: Percentage damage caused to weed species, post-emergence, SETFA
In short: as §1

[5] = test system: Ipomea hederaceae (IPOHE); experiment: as above; settings: Ipomoea hederacea, 312 h; Rate 1,000 g/ha; post-emergence spray; evaluated after 13 days (100=total damage to plant; 0=no damage to plant); read-out: Percentage damage caused to weed species, post-emergence, IPOHE
In short: as §1

[6] = test system: Alopecurus myosuroides (ALOMY); experiment: as above; settings: 312 h, Rate 1,000 g/ha, post-emergence spray, evaluated after 13 days (100=total damage to plant; 0=no damage to plant), read-out: Percentage damage caused to weed species, post-emergence, ALOMY
In short: as §1

Solanum nigrum (SOLNI) [7] = experiment: Pre-emergence biological efficacy, glasshouse pot test; settings: 312 h, pre-emergence, rate 1,000 g/ha, evaluated after 13 days (100=total damage to plant; 0=no damage), read-out: Percentage damage caused to weed species, SOLNI
In short: (§2)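 Test compound, formulated in acetone/water (50:50) containing 0.5% Tween 20 and diluted into an aqueous spray, was applied at 1000 or 250 g/ha to pots sown one day earlier. Injury was rated after 13 days, 100 meaning total damage.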

[8] = test system: Amaranthus retoflexus (AMARE); experiment: as above; settings: Amaranthus retroflexus, 312 h; pre-emergence, rate 1,000 g/ha, evaluated after 13 days (100=total damage to plant; 0=no damage); read-out: Percentage damage caused to weed species, AMARE
In short: as §2

[9] = test system: Echinochloa crus-galli (ECHCG); experiment: as above; settings: 312 h, pre-emergence, rate 1,000 g/ha, evaluated after 13 days (100=total damage to plant; 0=no damage), read-out: Percentage damage caused to weed species, ECHCG
In short: as §2

Setaria faberi (SETFA) [10] = experiment: as above; settings: 312 h, pre-emergence, rate 1,000 g/ha, evaluated after 13 days (100=total damage to plant; 0=no damage), read-out: Percentage damage caused to weed species, SETFA
In short: as §2

[11] = test system: Ipomea hederaceae (IPOHE); experiment: as above; settings: Ipomoea hederacea, 312 h; pre-emergence, rate 1,000 g/ha, evaluated after 13 days (100=total damage to plant; 0=no damage); read-out: Percentage damage caused to weed species, IPOHE
In short: as §2

[12] = test system: Alopecurus myosuroides (ALOMY); experiment: as above; settings: 312 h, pre-emergence, rate 1,000 g/ha, evaluated after 13 days (100=total damage to plant; 0=no damage), read-out: Percentage damage caused to weed species, ALOMY
In short: as §2

COC(=O)c1nc(C2CC2)nc(N(Cc2ccc(C)o2)C(C)C)c1Cl [Compound 146-135, 5-Chloro-2-cyclopropyl-6-methoxycarbonyl-4-[N-(5-methylfuran-2-ylmethyl)-N-prop-2-yl-amino]-pyrimidine]
pest or weed control at 1000 g/ha (Solanum nigrum (SOLNI) [1]): 90%
pest or weed control at 1000 g/ha [2]: 100%
pest or weed control at 1000 g/ha [3]: 80%
pest or weed control at 1000 g/ha (Setaria faberi (SETFA) [4]): 90%
pest or weed control at 1000 g/ha [5]: 100%
pest or weed control at 1000 g/ha [6]: 40%
pest or weed control at 1000 g/ha (Solanum nigrum (SOLNI) [7]): 100%
pest or weed control at 1000 g/ha [8]: 100%
pest or weed control at 1000 g/ha [9]: 10%
pest or weed control at 1000 g/ha (Setaria faberi (SETFA) [10]): 40%
pest or weed control at 1000 g/ha [11]: 100%
pest or weed control at 1000 g/ha [12]: 40%

COC(=O)c1nc(C2CC2)nc(N(C/C=C/c2ccccc2OC)C(C)C)c1Cl [Compound 146-255, 5-Chloro-2-cyclopropyl-4-{N-isopropyl-N-[3-(2-methoxyphenyl)-prop-2-enyl]-amino}-6-methoxycarbonyl-pyrimidine]
pest or weed control at 1000 g/ha (Solanum nigrum (SOLNI) [1]): 80%
pest or weed control at 1000 g/ha [2]: 100%
pest or weed control at 1000 g/ha [3]: 30%
pest or weed control at 1000 g/ha (Setaria faberi (SETFA) [4]): 80%
pest or weed control at 1000 g/ha [5]: 100%
pest or weed control at 1000 g/ha [6]: 20%
pest or weed control at 1000 g/ha (Solanum nigrum (SOLNI) [7]): 10%
pest or weed control at 1000 g/ha [8]: 100%
pest or weed control at 1000 g/ha [9]: 10%
pest or weed control at 1000 g/ha (Setaria faberi (SETFA) [10]): 20%
pest or weed control at 1000 g/ha [11]: 70%
pest or weed control at 1000 g/ha [12]: 10%

CCCCN(Cc1ccccc1)c1nc(C2CC2)nc(C(=O)OC)c1Cl [Compound 147-60, 4-(N-But-1-yl-N-phenylmethyl-amino)-5-chloro-2-cyclopropyl-6-methoxycarbonyl-pyrimidine]
pest or weed control at 1000 g/ha (Solanum nigrum (SOLNI) [1]): 80%
pest or weed control at 1000 g/ha [2]: 70%
pest or weed control at 1000 g/ha [3]: 10%
pest or weed control at 1000 g/ha (Setaria faberi (SETFA) [4]): 40%
pest or weed control at 1000 g/ha [5]: 80%
pest or weed control at 1000 g/ha [6]: 10%
pest or weed control at 1000 g/ha (Solanum nigrum (SOLNI) [7]): 80%
pest or weed control at 1000 g/ha [8]: 100%
pest or weed control at 1000 g/ha [9]: 20%
pest or weed control at 1000 g/ha (Setaria faberi (SETFA) [10]): 0%
pest or weed control at 1000 g/ha [11]: 30%
pest or weed control at 1000 g/ha [12]: 40%

CCC(C)N(Cc1ccccc1)c1nc(C2CC2)nc(C(=O)OC)c1Cl (stereo not drawn) [Compound 148-60, 4-(N-But-2-yl-N-phenylmethyl-amino)-5-chloro-2-cyclopropyl-6-methoxycarbonyl-pyrimidine]
pest or weed control at 1000 g/ha (Solanum nigrum (SOLNI) [1]): 80%
pest or weed control at 1000 g/ha [2]: 100%
pest or weed control at 1000 g/ha [3]: 0%
pest or weed control at 1000 g/ha (Setaria faberi (SETFA) [4]): 40%
pest or weed control at 1000 g/ha [5]: 90%
pest or weed control at 1000 g/ha [6]: 10%
pest or weed control at 1000 g/ha (Solanum nigrum (SOLNI) [7]): 80%
pest or weed control at 1000 g/ha [8]: 80%
pest or weed control at 1000 g/ha [9]: 0%
pest or weed control at 1000 g/ha (Setaria faberi (SETFA) [10]): 0%
pest or weed control at 1000 g/ha [11]: 30%
pest or weed control at 1000 g/ha [12]: 0%

COC(=O)c1nc(C2CC2)nc(N(Cc2ccccc2)C[Si](C)(C)C)c1Cl [Compound 150-60, 5-Chloro-2-cyclopropyl-6-methoxycarbonyl-4-(N-phenylmethyl-N-trimethylsilylmethyl-amino)pyrimidine]
pest or weed control at 1000 g/ha (Solanum nigrum (SOLNI) [1]): 90%
pest or weed control at 1000 g/ha [2]: 100%
pest or weed control at 1000 g/ha [3]: 60%
pest or weed control at 1000 g/ha (Setaria faberi (SETFA) [4]): 70%
pest or weed control at 1000 g/ha [5]: 90%
pest or weed control at 1000 g/ha [6]: 40%
pest or weed control at 1000 g/ha (Solanum nigrum (SOLNI) [7]): 70%
pest or weed control at 1000 g/ha [8]: 80%
pest or weed control at 1000 g/ha [9]: 40%
pest or weed control at 1000 g/ha (Setaria faberi (SETFA) [10]): 20%
pest or weed control at 1000 g/ha [11]: 90%
pest or weed control at 1000 g/ha [12]: 20%

C=CCN(Cc1ccccc1)c1nc(C2CC2)nc(C(=O)OC)c1Cl [Compound 151-60, 5-Chloro-2-cyclopropyl-6-methoxycarbonyl-4-(N-phenylmethyl-N-prop-2-en-1-yl-amino)-pyrimidine]
pest or weed control at 1000 g/ha (Solanum nigrum (SOLNI) [1]): 80%
pest or weed control at 1000 g/ha [2]: 100%
pest or weed control at 1000 g/ha [3]: 40%
pest or weed control at 1000 g/ha (Setaria faberi (SETFA) [4]): 80%
pest or weed control at 1000 g/ha [5]: 70%
pest or weed control at 1000 g/ha [6]: 20%
pest or weed control at 1000 g/ha (Solanum nigrum (SOLNI) [7]): 10%
pest or weed control at 1000 g/ha [8]: 40%
pest or weed control at 1000 g/ha [9]: 20%
pest or weed control at 1000 g/ha (Setaria faberi (SETFA) [10]): 10%
pest or weed control at 1000 g/ha [11]: 60%
pest or weed control at 1000 g/ha [12]: 20%

C=CCN(Cc1ccccc1F)c1nc(C2CC2)nc(C(=O)OC)c1Cl [Compound 151-64, 5-Chloro-2-cyclo-propyl-4-[N(2-fluorophenyl)methyl-N-prop-2-enyl-amino]-6-methoxy-carbonylpyrimidine]
pest or weed control at 1000 g/ha (Solanum nigrum (SOLNI) [1]): 90%
pest or weed control at 1000 g/ha [2]: 100%
pest or weed control at 1000 g/ha [3]: 40%
pest or weed control at 1000 g/ha (Setaria faberi (SETFA) [4]): 90%
pest or weed control at 1000 g/ha [5]: 100%
pest or weed control at 1000 g/ha [6]: 10%
pest or weed control at 1000 g/ha (Solanum nigrum (SOLNI) [7]): 0%
pest or weed control at 1000 g/ha [8]: 30%
pest or weed control at 1000 g/ha [9]: 0%
pest or weed control at 1000 g/ha (Setaria faberi (SETFA) [10]): 0%
pest or weed control at 1000 g/ha [11]: 30%
pest or weed control at 1000 g/ha [12]: 0%

C=CCN(Cc1ccc(F)cc1)c1nc(C2CC2)nc(C(=O)OC)c1Cl [Compound 151-66, 5-Chloro-2-cyclopropyl-4-[N-(4-fluorophenylmethyl)-N-prop-2-en-1-yl-amino]-6-methoxy-carbonylpyrimidine]
pest or weed control at 1000 g/ha (Solanum nigrum (SOLNI) [1]): 80%
pest or weed control at 1000 g/ha [2]: 80%
pest or weed control at 1000 g/ha [3]: 30%
pest or weed control at 1000 g/ha (Setaria faberi (SETFA) [4]): 50%
pest or weed control at 1000 g/ha [5]: 70%
pest or weed control at 1000 g/ha [6]: 20%
pest or weed control at 1000 g/ha (Solanum nigrum (SOLNI) [7]): 0%
pest or weed control at 1000 g/ha [8]: 40%
pest or weed control at 1000 g/ha [9]: 0%
pest or weed control at 1000 g/ha (Setaria faberi (SETFA) [10]): 0%
pest or weed control at 1000 g/ha [11]: 50%
pest or weed control at 1000 g/ha [12]: 0%

C=CCN(Cc1cccc(OC)c1OC)c1nc(C2CC2)nc(C(=O)OC)c1Cl [Compound 151-109, 5-Chloro-2-cyclopropyl-4-[N-(2,3-dimethoxyphenyl-methyl)-N-prop-2-en-1-yl-amino]-6-methoxycarbonyl-pyrimidine]
pest or weed control at 1000 g/ha (Solanum nigrum (SOLNI) [1]): 30%
pest or weed control at 1000 g/ha [2]: 30%
pest or weed control at 1000 g/ha [3]: 0%
pest or weed control at 1000 g/ha (Setaria faberi (SETFA) [4]): 0%
pest or weed control at 1000 g/ha [5]: 30%
pest or weed control at 1000 g/ha [6]: 0%
pest or weed control at 1000 g/ha (Solanum nigrum (SOLNI) [7]): 20%
pest or weed control at 1000 g/ha [8]: 60%
pest or weed control at 1000 g/ha [9]: 0%
pest or weed control at 1000 g/ha (Setaria faberi (SETFA) [10]): 10%
pest or weed control at 1000 g/ha [11]: 20%
pest or weed control at 1000 g/ha [12]: 0%

C=CCN(Cc1cc(Cl)ccc1OC)c1nc(C2CC2)nc(C(=O)OC)c1Cl [Compound 151-117, 5-Chloro-4-[N-(5-chloro-2-methoxyphenylmeth-yl)-N-prop-2-en-1-yl-amino]-2-cyclopropyl-6-methoxycarbonyl-pyrimidine]
pest or weed control at 1000 g/ha (Solanum nigrum (SOLNI) [1]): 30%
pest or weed control at 1000 g/ha [2]: 30%
pest or weed control at 1000 g/ha [3]: 0%
pest or weed control at 1000 g/ha (Setaria faberi (SETFA) [4]): 20%
pest or weed control at 1000 g/ha [5]: 60%
pest or weed control at 1000 g/ha [6]: 0%
pest or weed control at 1000 g/ha (Solanum nigrum (SOLNI) [7]): 30%
pest or weed control at 1000 g/ha [8]: 40%
pest or weed control at 1000 g/ha [9]: 0%
pest or weed control at 1000 g/ha (Setaria faberi (SETFA) [10]): 10%
pest or weed control at 1000 g/ha [11]: 30%
pest or weed control at 1000 g/ha [12]: 10%
